# From EP0087858A1, “New chromanone compounds and pharmaceutical compositions containing them” (priority 1982, dated 1983)
# Key:
# Acute toxicity = conditions: mouse, in vivo, male dd mice, deaths up to 72 hours
# Protocol: Groups of 10 male dd mice weighing some 18 g were orally or intraperitoneally administered the examined drugs and the number of death up to 72 hours later was recorded.
# An example of results is shown in Table 1: the drugs are those numbered correspondingly above. Administration is oral (p.o.) or intraperitoneal (i.p.)
# dd mice = experiment: Analgesic effects by a modified Haffner method; format: in vivo; conditions: 2 mg/kg morphine hydrochloride s.c. 30 minutes later, tail squeeze
# Protocol: Groups of 10 dd mice were orally administered the examined drugs and 30 minutes later 2 mg/kg of morphine hydrochloride, the threshold dose, was injected subcutaneously. At 15, 30, 45 and 60 minutes thereafter, the root of mouse's tail was squeezed with a Kocher's forceps.
# male dd mice = experiment: Analgesic effects by acetic acid writhing test; format: in vivo; conditions: inhibition rate of stretching after 0.6% acetic acid i.p.
# Protocol: 30 minutes after the examined drugs were given orally, 0.1 ml/10 g of 0.6% acetic acid solution was intraperitoneally administered to groups of 10 male dd mice weighing some 18 g. The number of stretching was calculated during an observation period of 15 to 20 minutes after acetic acid treatment. The average inhibition rate of stretching among 8 animals was regarded as the inhibition rate of the drug, excluding 2 animals showing maximum and minimum number of stretching.
# [1] = test system: plantaroedema induced by carrageenin; experiment: Inhibition of plantaroedema induced by carrageenin; format: in vivo; conditions: rats, 60 minutes before 0.1 ml of 1% carrageenin into the sole
# Protocol: 60 minutes after the drugs had been orally administered to groups of rats, 0.1 ml of 1% carrageenin solution was injected subcutaneously into the sole. The rate of increase in volume of the hind food compared with volume before carrageenin treatment was regarded as oedema rate.
# [2] = test system: gastric irritation/ulceration; experiment: Gastric irritation; format: in vivo; conditions: rats, 8 hours after dosing, aspirin (150 mg/kg) or indomethacin (40 mg/kg) taken as 100%
# Protocol: 8 hours after the examined drugs were orally administered to groups of rats, degree of gastric irritation/ulceration produced by the drug is compared with that produced by aspirin (150 mg/kg) or indomethacin (40 mg/kg). Percentage rate of production of gastric irritation, compared with the control drug, (that produced by aspirin or indomethacin was taken as 100%), was regarded as the gastric irritation rate.
# [3] = test system: stomach and intestinal tracts; parameters: species or system rats; conditions: rat, in vivo, po
Structure (SMILES),analgesic effect (%) (dd mice; 50 mg/kg orally),analgesic effect (%) (dd mice; 100 mg/kg orally),analgesic effect (%) (male dd mice; 50 mg/kg orally),analgesic effect (%) (male dd mice; 100 mg/kg orally),oedema rate (%) ([1]; 100 mg/kg orally),"mortality at 72 h (Acute toxicity; po, 400 mg/kg p.o.) [%]",oedema rate (%) ([1]; 50 mg/kg orally),other results
"Cc1c(N(C)C)c(=O)n(-c2ccccc2)n1C [Aminopyrine, reference compound]",20,35,17,57,,,,"mortality at 72 h (Acute toxicity; po, 600 mg/kg p.o.): 20%"
"O=C(O)Cc1ccc2c(c1)C(=O)CCO2 [Compound 1, (4-chromanon-6-yl) acetic acid]",15,30,31,45,,,,
"CC1(C)CC(=O)c2cc(CC(=O)O)ccc2O1 [Compound 2, (2,2-dimethyl-4-chromanon-6-yl) acetic acid]",,,13,62,46,,,"mortality at 72 h (Acute toxicity; po, 600 mg/kg p.o.): 0%"
"CC(C(=O)O)c1cc(Cl)c2c(c1)C(=O)CC(C)(C)O2 (stereo not drawn) [Compound 3, 2-(8-chloro-2,2-dimethyl-4-chromanon-6-yl)propionic acid]",20,25,27,59,48,0,,
"CC(C(=O)O)c1ccc2c(c1)C(=O)CC(C)(C)O2 (stereo not drawn) [Compound 4, 2-(2,2-dimethyl-4-chromanon-6-yl)propionic acid]",,,,,,,48,"mortality at 72 h (Acute toxicity; ip, 200 mg/kg i.p.): 0%; mortality at 72 h (Acute toxicity; po, 300 mg/kg p.o.): 0%; gastric irritation rate(%) ([2]; 50 mg/kg orally): 8%"
"CC(C(=O)O)c1cc(Cl)c2c(c1)C(=O)CCO2 (stereo not drawn) [Compound 5, 2-(8-chloro-4-chromanon-6-yl)propionic acid]",20,45,,,,0,,"mortality at 72 h (Acute toxicity; po, 800 mg/kg p.o.): 0%"
"CC(C(=O)O)c1ccc2c(c1)C(=O)C(C)(C)O2 (stereo not drawn) [Compound 6, 2-(2,2-dimethyl-2,3-dihydrobenzofuran-3-one-5-yl)propionic acid]",20,40,,,53,,34,"mortality at 72 h (Acute toxicity; ip, 200 mg/kg i.p.): 0%; mortality at 72 h (Acute toxicity; po, 300 mg/kg p.o.): 0%; gastric irritation rate(%) ([2]; 100 mg/kg orally): 25%"
"CC(C)Cc1ccc(C(C)C(=O)O)cc1 (stereo not drawn) [Ibuprofen, reference compound]",,,,,54,,,
"CCCCC1C(=O)N(c2ccccc2)N(c2ccccc2)C1=O [Phenylbutazone, reference compound]",,,,,50,30,33,findings in sections of the stomach and intestinal tracts [3]: mucosal disorder or ulcer formation
